23 compounds from patent publication US9469631B2 (Boehringer Ingelheim International GmbH, priority 2012, dated 2016) can be followed below.

For orientation: EC50 means the midpoint of the concentration-response curve. A higher EC50 goes with weaker potency.

The target in the assay is human GPR119 (Homo sapiens (Human), UniProt Q8TDV5). Nature of the assay: AlphaScreen cAMP assay in MIN6 cells stably transfected with human GPR119. Type of assay: cell-based. The note with it: Min-6/hGPR119 cells, 45 min incubation at room temperature. The procedure: The compounds of formula I according to the invention modulate the activity of the G-protein-coupled receptor GPR119. The effect of the compounds on the activation of GPR119 and on the stimulation of intracellular cAMP concentration is determined using the AlphaScreen cAMP Assay Kit (Cat. No. #6760625R) made by PerkinElmer.
Chain of human GPR119 (Q8TDV5 whole entry): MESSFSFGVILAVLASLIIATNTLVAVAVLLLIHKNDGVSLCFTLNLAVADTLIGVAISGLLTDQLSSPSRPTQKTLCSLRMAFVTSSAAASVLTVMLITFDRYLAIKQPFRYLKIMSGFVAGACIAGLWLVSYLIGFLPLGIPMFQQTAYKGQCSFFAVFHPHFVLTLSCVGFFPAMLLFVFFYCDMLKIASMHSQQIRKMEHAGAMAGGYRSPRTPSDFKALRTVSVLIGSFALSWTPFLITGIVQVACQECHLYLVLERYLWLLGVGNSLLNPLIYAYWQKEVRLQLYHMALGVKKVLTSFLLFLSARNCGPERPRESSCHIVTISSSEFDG
MIN6 cells [Miyazaki J et al. Endocrinology. 1990 July; 127(1):126-32] are stably transfected with an expression vector for human GPR119 cDNA (Acc. No. NP_848566). Min-6/hGPR119 cells are cultured in DMEM, 10% FBS, 50 μM β-mercaptoethanol, 0.3 mg/mL Geniticin, 2 mM GlutaMAX at 37° C. 5% CO2. For the assay, the cells are seeded in Optiplates (white, 384-well, 160W-barcoded, TC, sterile with lid, Cat. No. #6007688 (Perkin Elmer); 10000 cells/well; 50 μl). The plates covered with lids are then incubated for 24 hours at 37° C./5% CO2. After the medium is aspirated from the wells completely, 10 μl of the test compound are added, the compounds are diluted using stimulating buffer (140 mM NaCl, 3.6 mM KCl, 0.5 mM NaH2PO4, 0.5 mM MgSO4, 1.5 mM CaCl2, 10 mM Hepes, 5 mM NaHCO3; pH 7.4. 0.5 mM IBMX and 0.1% BSA, the final DMSO concentration is 1%). After 45 minutes incubation at room temperature (approx. 20° C.), the cAMP concentrations are determined using the AlphaScreen cAMP Assay Kit (Cat. No. #6760625R from PerkinElmer).
A general note: Bead proximity is the source of the signal in Alpha formats.
`CC(C)(C)OC(=O)N1CCC(N(C(=O)c2ccc(-c3noc(Cc4ccccc4)n3)cc2)C2CC2)CC1` [Example 68, 4-{[4-(5-Benzyl-[1,2,4]oxadiazol-3-yl)-benzoyl]-cyclopropyl-amino}-piperidine-1-carboxylic acid tert-butyl ester] returned an EC50 of 192 nM. In the case of `CC(C)(C)OC(=O)N1CCC(N(C(=O)c2ccc(-c3cncnc3)cc2)C2CC2)CC1` [Example 69, 4-[Cyclopropyl-(4-pyrimidin-5-yl-benzoyl)-amino]-piperidine-1-carboxylic acid tert-butyl ester] it was 158 nM. Then `CC(C)(C)OC(=O)N1CCC(N(C(=O)c2ccc(-c3ccncc3)cc2)C2CC2)CC1` [Example 70, 4-[Cyclopropyl-(4-pyridin-4-yl-benzoyl)-amino]-piperidine-1-carboxylic acid tert-butyl ester], with 41 nM; and `CC(C)(C)OC(=O)N1CCC(N(C(=O)c2ccc(-n3cccn3)cc2)C2CC2)CC1` [Example 71, 4-[Cyclopropyl-(4-pyrazol-1-yl-benzoyl)-amino]-piperidine-1-carboxylic acid tert-butyl ester], with 637 nM.

In the case of `CN(C)C(=O)Nc1nc(-c2ccc(C(=O)N(C3CC3)C3CCN(C(=O)OC(C)(C)C)CC3)cc2)ns1` [Example 72, 4-(Cyclopropyl-{4-[5-(3,3-dimethyl-ureido)-[1,2,4]thiadiazol-3-yl]-benzoyl}-amino)-piperidine-1-carboxylic acid tert-butyl ester], the response was half-maximal at 1170 nM (EC50). For `CNC(=O)Nc1nc(-c2ccc(C(=O)N(C3CC3)C3CCN(C(=O)OC(C)(C)C)CC3)cc2)ns1` [Example 73, 4-(Cyclopropyl-{4-[5-(3-methyl-ureido)-[1,2,4]thiadiazol-3-yl]-benzoyl}-amino)-piperidine-1-carboxylic acid tert-butyl ester], it took 500 nM to reach a half-maximal effect (EC50). For `CC(=O)Nc1nc(-c2ccc(C(=O)N(C3CC3)C3CCN(C(=O)OC(C)(C)C)CC3)cc2)ns1` [Example 74, 4-{[4-(5-Acetylamino-[1,2,4]thiadiazol-3-yl)-benzoyl]-cyclopropyl-amino}-piperidine-1-carboxylic acid tert-butyl ester], the EC50 was determined as 886 nM.

On to `CC(C)(C)OC(=O)N1CCC(N(C(=O)c2ccc(-c3cccnc3)cc2)C2CC2)CC1` [Example 75, 4-[Cyclopropyl-(4-pyridin-3-yl-benzoyl)-amino]-piperidine-1-carboxylic acid tert-butyl ester], for which the midpoint of the response, the EC50, lay at 651 nM. Then `CN(C)C(=O)Nc1nnc(-c2ccc(C(=O)N(C3CC3)C3CCN(C(=O)OC(C)(C)C)CC3)cc2)s1` [Example 76, 4-(Cyclopropyl-{4-[5-(3,3-dimethyl-ureido)-[1,3,4]thiadiazol-2-yl]-benzoyl}-amino)-piperidine-1-carboxylic acid tert-butyl ester], with 233 nM; and `CC(=O)Nc1nnc(-c2ccc(C(=O)N(C3CC3)C3CCN(C(=O)OC(C)(C)C)CC3)cc2)s1` [Example 77, 4-{[4-(5-Acetylamino-[1,3,4]thiadiazol-2-yl)-benzoyl]-cyclopropyl-amino}-piperidine-1-carboxylic acid tert-butyl ester], with 394 nM; and `CCOC(=O)c1cnn(-c2ccc(C(=O)N(C3CC3)C3CCN(C(=O)OC(C)(C)C)CC3)cc2)c1C` [Example 78, 4-{Cyclopropyl-[4-(4-ethoxycarbonyl-5-methyl-pyrazol-1-yl)-benzoyl]-amino}-piperidine-1-carboxylic acid tert-butyl ester], with 75 nM. Then `CCOC(=O)c1c(C)nn(-c2ccc(C(=O)N(C3CC3)C3CCN(C(=O)OC(C)(C)C)CC3)cc2)c1C` [Example 79, 4-{Cyclopropyl-[4-(4-ethoxycarbonyl-3,5-dimethyl-pyrazol-1-yl)-benzoyl]-amino}-piperidine-1-carboxylic acid tert-butyl ester], with 1010 nM. Take `CC(C)(C)OC(=O)N1CCC(N(C(=O)c2ccc(-c3ccsc3)cc2)C2CC2)CC1` [Example 80, 4-[Cyclopropyl-(4-thiophen-3-yl-benzoyl)-amino]-piperidine-1-carboxylic acid tert-butyl ester]: it took 345 nM to reach a half-maximal effect (EC50). Then `CC(C)(C)OC(=O)N1CCC(N(C(=O)c2ccc(-n3cnc(-c4ccccc4)c3)c(Cl)c2)C2CC2)CC1` [Example 81, 4-{[3-Chloro-4-(4-phenyl-imidazol-1-yl)-benzoyl]-cyclopropyl-amino}-piperidine-1-carboxylic acid tert-butyl ester], with 148 nM; and `CNC(=O)Nc1nnc(-c2ccc(C(=O)N(C3CC3)C3CCN(C(=O)OC(C)(C)C)CC3)cc2)s1` [Example 82, 4-(Cyclopropyl-{4-[5-(3-methyl-ureido)-[1,3,4]thiadiazol-2-yl]-benzoyl}-amino)-piperidine-1-carboxylic acid tert-butyl ester], with 402 nM; and `Cc1c(-c2ccccc2)ncn1-c1ccc(C(=O)N(C2CC2)C2CCN(C(=O)OC(C)(C)C)CC2)cc1` [Example 83, 4-{Cyclopropyl-[4-(5-methyl-4-phenyl-imidazol-1-yl)-benzoyl]-amino}-piperidine-1-carboxylic acid tert-butyl ester], with 291 nM. The compound `Cc1nc(-c2ccccc2)cn1-c1ccc(C(=O)N(C2CC2)C2CCN(C(=O)OC(C)(C)C)CC2)cc1` [Example 84, 4-{Cyclopropyl-[4-(2-methyl-4-phenyl-imidazol-1-yl)-benzoyl]-amino}-piperidine-1-carboxylic acid tert-butyl ester] yielded a concentration giving a half-maximal response (EC50) of 96 nM. In the case of `COc1ccc(-c2ccc(C(=O)N(C3CC3)C3CCN(C(=O)OC(C)(C)C)CC3)cc2)cc1` [Example 86, 4-[Cyclopropyl-(4′-methoxy-biphenyl-4-carbonyl)-amino]-piperidine-1-carboxylic acid tert-butyl ester] it was 401 nM; in that of `CCOc1ccc(-c2ccc(C(=O)N(C3CC3)C3CCN(C(=O)OC(C)(C)C)CC3)cc2)cc1` [Example 87, 4-[Cyclopropyl-(4′-ethoxy-biphenyl-4-carbonyl)-amino]-piperidine-1-carboxylic acid tert-butyl ester], 256 nM; in that of `CC(C)(C)OC(=O)N1CCC(N(C(=O)c2ccc(-c3ccc(OC(F)(F)F)cc3)cc2)C2CC2)CC1` [Example 88, 4-[Cyclopropyl-(4′-trifluoromethoxy-biphenyl-4-carbonyl)-amino]-piperidine-1-carboxylic acid tert-butyl ester], 203 nM. In turn, `CC(C)(C)OC(=O)N1CCC(N(C(=O)c2ccc(-c3ccc(C#N)s3)cc2)C2CC2)CC1` [Example 89, 4-{[4-(5-Cyano-thiophen-2-yl)-benzoyl]-cyclopropyl-amino}-piperidine-1-carboxylic acid tert-butyl ester] gave an EC50 of 24 nM. Then `CC(C)(C)OC(=O)N1CCC(N(C(=O)c2ccc(-c3ccoc3)cc2)C2CC2)CC1` [Example 90, 4-[Cyclopropyl-(4-furan-3-yl-benzoyl)-amino]-piperidine-1-carboxylic acid tert-butyl ester], with 228 nM. In the case of `CC(C)(C)OC(=O)N1CCC(N(C(=O)c2ccc(-c3ccc(CC#N)cc3)cc2)C2CC2)CC1` [Example 91, 4-[(4′-Cyanomethyl-biphenyl-4-carbonyl)-cyclopropyl-amino]-piperidine-1-carboxylic acid tert-butyl ester] it was 86 nM.
